Measured values from ChEMBL document CHEMBL5512652, “Mono-quinoxaline-induced DNA structural alteration leads to ZBP1/RIP3/MLKL-driven necroptosis in cancer cells” (Eur J Med Chem, 2024).
Calls of active or inactive are those of the source. The calls are words filed in the database; no cut-off is given here.

Tests used:
HCT-116 [1] = experiment: Induction of apoptosis in human HCT-116 cells assessed as necrotic cells at 2 uM incubated for 24 hrs by FITC/Annexin V based FACS analysis (reference value: 4.9%); assay type: functional
HT-29 [2] = experiment: Induction of morphological alteration in human HT-29 cells assessed as plasma membrane swelling at 8 uM measured after 5 to 6 hrs in presence of Z-VAD by microscopic analysis; assay type: functional, cell-based; conditions: time 5-6 hrs
HCT-116 [3] = experiment: Induction of ROS generation in human HCT-116 cells incubated for 24 hrs by H2DCFDA staining based flow cytometry analysis; assay type: functional, cell-based; conditions: dose 1-4 µM
HCT-116 [4] = experiment: Induction of apoptosis in human HCT-116 cells assessed as late apoptotic cells at 1 uM incubated for 24 hrs by FITC/Annexin V based FACS analysis (reference value: 2.8%); assay type: functional
HCT-116 [5] = experiment: Induction of apoptosis in human HCT-116 cells assessed as viable cells at 4 uM incubated for 24 hrs by FITC/Annexin V based FACS analysis (reference value: 87.1%); assay type: functional; conditions: read-out: Activity
HeLa [6] = experiment: Induction of cell death in human HeLa cells assessed as increase in ZBP1 expression at 6 uM incubated for 24 hrs by immunofluorescence analysis; assay type: functional, cell-based
HT-29 [7] = experiment: Induction of morphological alteration in human HT-29 cells assessed as formation of round cells at 8 uM measured after 5 to 24 hrs by microscopic analysis; assay type: functional, cell-based; conditions: time 5-24 hrs
HT-29 [8] = experiment: Induction of ROS generation in human HT-29 cells incubated for 24 hrs by H2DCFDA staining based flow cytometry analysis; assay type: functional, cell-based; conditions: dose 3-8 µM
HT-29 [9] = experiment: Induction of necroptosis in human HT-29 cells assessed as reduction in cell survivability pretreated with Z-VAD for 30 mins followed by compound addition by MTT assay; assay type: functional, cell-based; conditions: dose 0.5-10 µM
HT-29 [10] = experiment: Induction of apoptosis in human HT-29 cells assessed as late apoptotic cells at 3 uM incubated for 24 hrs by FITC/Annexin V based FACS analysis (reference value: 1.5%); assay type: functional
HeLa [11] = experiment: Induction of apoptosis in human HeLa cells assessed as late apoptotic cells at 2 uM incubated for 24 hrs by FITC/Annexin V based FACS analysis (reference value: 1.7%); assay type: functional

Q: Which Activity (HCT-116 [1]) does the source give for `CN(C)CCCNc1nc2cc([N+](=O)[O-])ccc2nc1NCc1ccc(-c2ccccc2)cc1` here?
A: Its Activity is 26.1%.

Q: What about the Activity (HT-29 [2]) of the same compound?
A: Its Activity is “Active”.

Q: What about the Activity (HCT-116 [3]) of the same compound?
A: The Activity was “Dose-Dependent Effect”.

Q: And the Activity (HCT-116 [4])?
A: The Activity was 5.84%.

Q: What about the viability at 4 µM (HCT-116 [5]) of the same compound?
A: Its viability at 4 µM is 45.2%.

Q: And the Activity (HeLa [6])?
A: Its Activity is “Active”.

Q: What about the Activity (HT-29 [7]) of the same compound?
A: Its Activity is “Active”.

Q: And the Activity (HT-29 [8])?
A: Its Activity is “Dose-Dependent Effect”.

Q: What about the Activity (HT-29 [9]) of the same compound?
A: The Activity was “Dose-Dependent Effect”.

Q: And the Activity (HT-29 [10])?
A: The Activity was 6.27%.

Q: And the Activity (HeLa [11])?
A: The Activity was 7.8%.
